Test results as given in patent US6083951A, “Aryl-substituted pyrimidine sulphonamide compounds as endothelin antagonists” (Zeneca Limited, priority 1994, dated 2000).

Columns and labels:
[1] = test system: Human ETA or ETB receptors; assay: Test A: inhibition of [125I]-Endothelin-1 binding to MEL cell membranes expressing recombinant receptor; details: [125I]-Endothelin-1 30 pM, receptor subtype (ETA or ETB) not stated
Description: The endothelin receptor antagonist activity of compounds of formula I may be assessed in vitro by their ability to inhibit binding of [^125 I]-Endothelin-1 to its receptors. Human ETA or ETB receptors (sub-types of the endothelin receptor) were expressed in Mouse Erythroleukemic Cells (MEL cells) by using standard molecular techniques (for example, as described by Sambrook J., Fritsch E. F. & Maniatis T. (1989) Molecular Cloning: A Laboratory Manual, 2nd Edition, Cold Spring Harbor Press, U.S.A.). cDNA sequences encoding the human ETA and ETB receptor (Hosoda K. et al (1991), FEBS Lett., 287, 23-26 and Sakamoto A. et al, (1991), Biochem. Biophys Res. Comm., 178, 656-663) are subcloned into pBluescript vector followed by insertion into the MEL cell expression vector pEV as described by Needham et al (1992), Nuc. Acids Res., 20, 997-1003. […]
[^125 I]-Endothelin-1 binding to MEL cell membranes was measured in incubation buffer containing 50 mM Tris HCl, 1 mM CaCl2, 0.05% polyoxyethylenesorbitan monolaurate, 0.1% Bovine Serum Albumin (BSA), 0.02% sodium azide pH 7.4 at 30° C. after 180 minutes incubation. […] Nonspecific binding was measured in the presence of 100 nM unlabelled Endothelin-1. […] The filter discs were punched out and counted in a gamma counter. Compounds are tested in triplicate over a range of concentrations and IC50 (or pIC50) values calculated.

[2] = test system: guinea-pig isolated taenia coli; assay: Test B: inhibition of the relaxant response to endothelin-1 in isolated tissue; type: cell-based; details: antagonism of endothelin-1 relaxation, pA2 from concentration ratio
Method: The endothelin receptor antagonist activity of compounds of formula I may be assessed in vitro in isolated tissues by their ability to inhibit the relaxant response to endothelin-1 in the guinea-pig isolated taenia coli. Guinea pigs of either sex and weight >250 g are killed by cervical dislocation and the caecum removed and placed in cold oxygenated Krebs solution. Strips of Taenia coli are dissected out and approximately 4 cm lengths set up for isotonic recording in a 20 ml organ bath containing oxygenated Krebs solution at 32° C. After a 90-120 minute equilibration period to allow the tissue to spontaneously develop an increased tone, a cumulative concentration-response curve (relaxation) is constructed to endothelin-1 (0.3-10 nM). The tissue is then washed for a period of at least 90 minutes before construction of a second concentration-response curve to endothelin-1 in the presence of the test compound. The test compound is added to the organ bath (at an initial concentration of 20 μM) at least 30 minutes before constructing the second concentration-response curve to endothelin-1. The endothelin-1 concentration ratio for each experiment is determined by comparing the most parallel portions of the control and drug treated concentration-response curves. From this a pA2 is calculated: pA2 =-log[molar drug concentration]+log[concentration ratio-1].

pIC50 in test A [1]: 6.7
SMILES: CN(C)c1cccc2c(S(=O)(=O)Nc3ccc(Cl)nn3)cccc12 [Example 1, 5-(dimethylamino)-N-(6-chloro-3-pyridazinyl)-1-naphthalenesulphonamide]
pA2 in test B [2]: 6.8
